Laboratory results taken from US10597388B2, “Pyridazinone herbicides” (FMC CORPORATION, priority 2014, dated 2020).

Experiments:
Test in all cases: Test D controlled growth environment herbicide test, pre- and postemergence
Format in all cases: in vivo
[1] = tested on: chickweed (common chickweed, Stellaria media)
Source text: (§1) Seeds of plant species selected from bluegrass (annual bluegrass, Poa annua), blackgrass (Alopecurus myosuroides), Canada thistle (Cirsium arvense), canarygrass (Phalaris minor), chickweed (common chickweed, Stellaria media), geranium, cutleaf (cutleaf geranium, Geranium dissectum), galium (catchweed bedstraw, Galium aparine), bromegrass, downy (downy bromegrass, Bromus tectorum), field poppy (Papaver rhoeas), field violet (Viola arvensis), foxtail, green (green foxtail, Setaria viridis), deadnettle (henbit deadnettle, Lamium amplexicaule), ryegrass, Italian (Italian ryegrass, Lolium multiflorum), kochia (Kochia scoparia), lambsquarters (Chenopodium album), oilseed rape (Brassica napus), pigweed (Amaranthus retroflexus), chamomile (scentless chamomile, Matricaria inodora), Russian thistle (Salsola kali), speedwell (bird's-eye speedwell, Veronica persica), barley, spring (spring barley, Hordeum vulgare), wheat, spring (spring wheat, Triticum aestivum), buckwheat, wild (wild buckwheat, Polygonum convolvulus), mustard, wild (wild mustard, Sinapis arvensis), oat, wild (wild oat, Avena fatua), radish, wild (wild radish, Raphanus raphanistrum), windgrass (Apera spica-venti), barley, winter (winter barley, Hordeum vulgare), and wheat, winter (winter wheat, Triticum aestivum) were planted into a silt loam soil and treated preemergence with test chemicals formulated in a non-phytotoxic solvent mixture which included a surfactant.
(§2) At the same time, these species were planted in pots containing Redi-Earth® planting medium (Scotts Company, 14111 Scottslawn Road, Marysville, Ohio 43041) comprising spaghnum peat moss, vermiculite, wetting agent and starter nutrients and treated with postemergence applications of the test chemicals formulated in the same manner. Plants ranged in height from 2 to 18 cm (1- to 4-leaf stage). Treated plants and controls were maintained in a controlled growth environment for 14 to 21 d after which time all species were compared to controls and visually evaluated. Plant response ratings, summarized in Table D, are based on a scale of 0 to 100 where 0 is no effect and 100 is complete control. A dash (-) response means no test result.

[2] = tested on: field violet (Viola arvensis)
Source text: as §1, §2

[3] = tested on: radish, wild (wild radish, Raphanus raphanistrum)
Source text: as §1, §2

[4] = tested on: canarygrass (Phalaris minor)
Source text: as §1, §2

[5] = tested on: barley, winter (winter barley, Hordeum vulgare)
Source text: as §1, §2

[6] = tested on: galium (catchweed bedstraw, Galium aparine)
Source text: as §1, §2

[7] = tested on: Russian thistle (Salsola kali)
Source text: as §1, §2

[8] = tested on: windgrass (Apera spica-venti)
Source text: as §1, §2

[9] = tested on: kochia (Kochia scoparia)
Source text: as §1, §2

[10] = tested on: buckwheat, wild (wild buckwheat, Polygonum convolvulus)
Source text: as §1, §2

[11] = tested on: pigweed (Amaranthus retroflexus)
Source text: as §1, §2

[12] = tested on: bromegrass, downy (downy bromegrass, Bromus tectorum)
Source text: as §1, §2

[13] = tested on: oat, wild (wild oat, Avena fatua)
Source text: as §1, §2

[14] = Postemergence, 31 g ai/ha, scale 0 to 100 (0 no effect, 100 complete control)
[15] = Postemergence, 125 g ai/ha, visual rating on scale 0 (no effect) to 100 (complete control), 14 to 21 d
[16] = Postemergence, 250 g ai/ha, scale 0 to 100 (0 no effect, 100 complete control)
[17] = Preemergence, 62 g ai/ha, scale 0 to 100 (0 no effect, 100 complete control)
[18] = Preemergence, 125 g ai/ha, scale 0 to 100 (0 no effect, 100 complete control)
[19] = Preemergence, 250 g ai/ha, scale 0 to 100 (0 no effect, 100 complete control)
[20] = postemergence, 62 g ai/ha, scale 0 to 100, 0 no effect, 100 complete control

Structure (SMILES): Cc1ccc(-c2c(O)c(Br)nn(C)c2=O)c2ccccc12 [Compound 52]
- Chickweed plant response rating [1, 14]: 90
- Plant response rating, Chickweed [1, 15]: 90
- Plant response rating, Chickweed [1, 16]: 100
- Plant response rating (scale of 0 to 100), Chickweed ([1]; Preemergence, 31 g ai/ha): 98
- Plant response rating, Chickweed [1, 17]: 98
- Plant response rating, Chickweed [1, 18]: 100
- Plant response rating, Chickweed [1, 19]: 100
- Plant response rating, Chickweed [1, 20]: 100
- Field Violet plant response rating [2, 14]: 35
- Plant response rating, Field Violet [2, 15]: 75
- Plant response rating, Field Violet [2, 16]: 75
- Plant response rating (scale of 0 to 100), Field Violet ([2]; Preemergence, 31 g ai/ha): 0
- Plant response rating, Field Violet [2, 17]: 10
- Plant response rating, Field Violet [2, 18]: 75
- Plant response rating, Field Violet [2, 19]: 85
- Plant response rating, Field Violet [2, 20]: 65
- Radish, Wild plant response rating [3, 14]: 35
- Plant response rating, Radish, Wild [3, 15]: 80
- Plant response rating, Radish, Wild [3, 16]: 85
- Plant response rating (scale of 0 to 100), Radish, Wild ([3]; Preemergence, 31 g ai/ha): 0
- Plant response rating, Radish, Wild [3, 17]: 15
- Plant response rating, Radish, Wild [3, 18]: 55
- Plant response rating, Radish, Wild [3, 19]: 75
- Plant response rating, Radish, Wild [3, 20]: 65
- Canarygrass plant response rating [4, 14]: 0
- Plant response rating, Canarygrass [4, 15]: 0
- Plant response rating, Canarygrass [4, 16]: 0
- Plant response rating (scale of 0 to 100), Canarygrass ([4]; Preemergence, 31 g ai/ha): 20
- Plant response rating, Canarygrass [4, 17]: 25
- Plant response rating, Canarygrass [4, 18]: 25
- Plant response rating, Canarygrass [4, 19]: 35
- Plant response rating, Canarygrass [4, 20]: 0
- Barley, Winter plant response rating [5, 14]: 0
- Plant response rating, Barley, Winter [5, 15]: 0
- Plant response rating, Barley, Winter [5, 16]: 0
- Plant response rating (scale of 0 to 100), Barley, Winter ([5]; Preemergence, 31 g ai/ha): 0
- Plant response rating, Barley, Winter [5, 17]: 0
- Plant response rating, Barley, Winter [5, 18]: 0
- Plant response rating, Barley, Winter [5, 19]: 0
- Plant response rating, Barley, Winter [5, 20]: 0
- Galium plant response rating [6, 14]: 90
- Plant response rating, Galium [6, 15]: 98
- Plant response rating, Galium [6, 16]: 100
- Plant response rating (scale of 0 to 100), Galium ([6]; Preemergence, 31 g ai/ha): 70
- Plant response rating, Galium [6, 17]: 100
- Plant response rating, Galium [6, 18]: 90
- Plant response rating, Galium [6, 19]: 95
- Plant response rating, Galium [6, 20]: 95
- Russian Thistle plant response rating [7, 14]: 20
- Plant response rating, Russian Thistle [7, 15]: 45
- Plant response rating, Russian Thistle [7, 16]: 55
- Plant response rating (scale of 0 to 100), Russian Thistle ([7]; Preemergence, 31 g ai/ha): 0
- Plant response rating, Russian Thistle [7, 17]: 0
- Plant response rating, Russian Thistle [7, 18]: 0
- Plant response rating, Russian Thistle [7, 19]: 0
- Plant response rating, Russian Thistle [7, 20]: 35
- Windgrass plant response rating [8, 14]: 0
- Plant response rating, Windgrass [8, 15]: 5
- Plant response rating, Windgrass [8, 16]: 5
- Plant response rating (scale of 0 to 100), Windgrass ([8]; Preemergence, 31 g ai/ha): 10
- Plant response rating, Windgrass [8, 17]: 10
- Plant response rating, Windgrass [8, 18]: 10
- Plant response rating, Windgrass [8, 19]: 10
- Plant response rating, Windgrass [8, 20]: 5
- Kochia plant response rating [9, 14]: 0
- Plant response rating, Kochia [9, 15]: 55
- Plant response rating, Kochia [9, 16]: 65
- Plant response rating (scale of 0 to 100), Kochia ([9]; Preemergence, 31 g ai/ha): 15
- Plant response rating, Kochia [9, 17]: 35
- Plant response rating, Kochia [9, 18]: 40
- Plant response rating, Kochia [9, 19]: 90
- Plant response rating, Kochia [9, 20]: 20
- Buckwheat, Wild plant response rating [10, 14]: 100
- Plant response rating, Buckwheat, Wild [10, 15]: 100
- Plant response rating, Buckwheat, Wild [10, 16]: 100
- Plant response rating (scale of 0 to 100), Buckwheat, Wild ([10]; Preemergence, 31 g ai/ha): 20
- Plant response rating, Buckwheat, Wild [10, 17]: 20
- Plant response rating, Buckwheat, Wild [10, 18]: 55
- Plant response rating, Buckwheat, Wild [10, 19]: 100
- Plant response rating, Buckwheat, Wild [10, 20]: 100
- Pigweed plant response rating [11, 14]: 35
- Plant response rating, Pigweed [11, 15]: 75
- Plant response rating, Pigweed [11, 16]: 80
- Plant response rating (scale of 0 to 100), Pigweed ([11]; Preemergence, 31 g ai/ha): 60
- Plant response rating, Pigweed [11, 17]: 55
- Plant response rating, Pigweed [11, 18]: 65
- Plant response rating, Pigweed [11, 19]: 90
- Plant response rating, Pigweed [11, 20]: 40
- Bromegrass, Downy plant response rating [12, 14]: 0
- Plant response rating, Bromegrass, Downy [12, 15]: 0
- Plant response rating, Bromegrass, Downy [12, 16]: 10
- Plant response rating (scale of 0 to 100), Bromegrass, Downy ([12]; Preemergence, 31 g ai/ha): 0
- Plant response rating, Bromegrass, Downy [12, 17]: 0
- Plant response rating, Bromegrass, Downy [12, 18]: 15
- Plant response rating, Bromegrass, Downy [12, 19]: 20
- Plant response rating, Bromegrass, Downy [12, 20]: 0
- Oat, Wild plant response rating [13, 14]: 5
- Plant response rating, Oat, Wild [13, 15]: 5
- Plant response rating, Oat, Wild [13, 16]: 15
- Plant response rating (scale of 0 to 100), Oat, Wild ([13]; Preemergence, 31 g ai/ha): 25
- Plant response rating, Oat, Wild [13, 17]: 25
- Plant response rating, Oat, Wild [13, 18]: 25
- Plant response rating, Oat, Wild [13, 19]: 30
- Plant response rating, Oat, Wild [13, 20]: 5
